Measurements reported in patent US10709757B2, “Pharmaceutical composition for anti-angiogenesis containing cyclic pentadepsipeptide as an effective ingredient” (CHUNG-ANG UNIVERSITY INDUSTRY-ACADEMIC COOPERATION …, priority 2017, dated 2020).

Experiments:
[1] = tested on: human umbilical vein endothelial cells (HUVECs); assay: MTT assay, VEGF-induced proliferation of HUVECs; type: cell-based; settings: 24 hours
Protocol: After being cultured to 80-90% confluence, human umbilical vein endothelial cells (HUVECs) were additionally cultured in an M199 medium supplemented with 1% FBS for 6 hours, and then treated with neo-N-methylsansalvamide (NMSSV) at various concentrations in the presence of VEGF (50 ng/ml) for 24 hours. Effects of neo-N-methylsansalvamide (NMSSV) on the viability and growth inhibition of the HUVEC cells were measured by a 3-(4,5-dimethylthiazol-2-yl)-2,5-diphenyltetrazolium bromide (MTT) assay method.
In order to identify the effects of the neo-N-methylsansalvamide (NMSSV, Peak 2, hereinafter, referred to as P2) of the present invention on the proliferation in VEGF-induced HUVECs, it was confirmed that cells were proliferated by culturing the cells with P2 at various concentrations in the presence or absence of VEGF (50 ng/ml) by the method in Example 1-2 and performing an MTT assay 24 hours after the culture.

ERK1/2 = assay: Phosphorylation assay of ERK1/2 in VEGF-induced HUVECs (Western); type: cell-based, human; settings: VEGF 50 ng/ml, FIG. 2
Protocol: (§1) After being cultured to 80-90% confluence, human umbilical vein endothelial cells (HUVECs) were additionally cultured in an M199 medium supplemented with 1% FBS for 6 hours, and then treated with neo-N-methylsansalvamide (NMSSV) at various concentrations in the presence of VEGF (50 ng/ml) for 10 minutes. Effects of neo-N-methylsansalvamide (NMSSV) in the phosphorylation assay of ERK1/2, AKT, and eNOS of HUVEC cells were measured by a Western assay method using each antibody.
(§2) In this case, the HUVECs were pre-cultured for 10 minutes prior to the VEGF stimulation and along with P2 for 40 minutes.

AKT = assay: Phosphorylation assay of AKT in VEGF-induced HUVECs (Western); type: cell-based, human; settings: VEGF 50 ng/ml, FIG. 2
Protocol: as §1, §2

eNOS = assay: Phosphorylation assay of eNOS in VEGF-induced HUVECs (Western); type: cell-based, human; settings: VEGF 50 ng/ml, FIG. 2
Protocol: as §1, §2

HUVECs [2] = assay: Colony tube formation assay; type: cell-based, human; settings: Matrigel, VEGF 50 ng/ml, 24 hours, FIG. 3
Protocol: After being cultured to 80-90% confluence in a plate covered with Matrigel (Collaborative Biomedical Products, Bedford, Mass.), HUVECs were additionally cultured in an M199 medium supplemented with 1% FBS for 6 hours, and then treated with neo-N-methylsansalvamide (NMSSV) at various concentrations in the presence of VEGF (50 ng/ml) for 24 hours. The tube formation was photographed by using a phase-contrast microscope.
The formation of capillary-like tubular structures by endothelial cells is one of the most essential steps in the development of angiogenesis, and it was checked whether P2 inhibited the formation of capillary-like network structures in HUVECs in Matrigel.

HUVECs [3] = assay: Wound-healing migration assay; type: cell-based, human; settings: VEGF 50 ng/ml, 24 hours, FIG. 4
Protocol: When cells were grown to approximately 90%, the medium was suctioned, and then a line was created by steadily scratching the bottom of the plate with a yellow tip, and then the cells were washed with PBS and treated with neo-N-methylsansalvamide (NMSSV) at various concentrations in the presence of VEGF (50 ng/ml) for 24 hours. After 24 hours, the tendency of cells to migrate at each treatment concentration was photographed and observed by marking the position under a microscope at 40× magnification.
(§3) Subsequently, the migration and invasion of endothelial cells is also a main step of angiogenesis leading to the formation of new blood vessels, so that effects of P2 on mobility and invasiveness of VEGF-induced HUVECs were checked by using a wound-healing migration assay and a Transwell invasion assay.

HUVECs [4] = assay: Transwell invasion assay; type: cell-based, human; settings: VEGF 50 ng/ml, 24 hours, FIG. 5
Protocol: An experiment was performed by using a modified Boyden chamber prepared with a polycarbonate nucleopore membrane (Corning, Corning, N.Y.). After trypsin-EDTA was added to the cells, the cells were collected, the cells were measured by using a hematocytometer, and then the concentration was set to 4×10^5 cells/ml, and the cells were respectively aliquoted. After 700 μl of the medium was added to the bottom well and an insert was placed thereon, 100 μl of cells prepared with neo-N-methylsansalvamide (NMSSV) at various concentrations were aliquoted into the insert in the presence of VEGF (50 ng/ml) and cultured in an incubator at 37° C. for 24 hours. […] After the cells, which succeeded in passing through the gelatin, were fixed with 4% paraformaldehyde, the cells were stained by using crystal violet, washed twice with PBS, and then placed on a glass plate. Thereafter, the cells were observed by using a microscope, and arbitrary five points were marked, photographed, and observed.
as §3

mouse aortic ring = assay: Aortic ring assay (ex vivo VEGF-induced vascularization); settings: in the presence of VEGF, FIG. 6
Protocol: 150 μl of Matrigel was put into a 48-well plate, uniformly spread by shaking the 48-well plate, and hardened in an incubator at 37° C. for 30 minutes. After a C57BL/6 mouse was over-anesthetized with ether and sacrificed, the aorta was extracted and washed with PBS to remove the fat, the resulting aorta was transferred to human endothelial-SFM and excised by using micro scissors. The excised aorta was placed on the hardened Matrigel, 50 μl of Matrigel was dropped on the aorta tissue, and then hardened in an incubator at 37° C. for 30 minutes. 200 μl of a medium including neo-N-methylsansalvamide (NMSSV) and VEGF was each added, and cells were observed while being cultured in a CO2 incubator at 37° C. After treatment with the test material, the cells were cultured for 14 days. On Day 7 and Day 14 of the culture, the cells were observed and photographed by an invert microscope (OLYMPUS, CKX41), and the lengths of the blood vessels produced were measured by photographing the aorta with the Toupview program (OLYMPUS, ver.3.5).
Based on the results in the Examples, the effects of P2 on ex vivo VEGF-induced neovascularization were identified, so that an aortic ring assay was performed in order to check the effects of P2 on the formation of capillary vessels in the presence of VEGF.

C57BL/6 mice [5] = assay: Matrigel plug assay (in vivo VEGF-induced angiogenesis); parameters: species or system mouse; settings: seven days, FIG. 7
Protocol: A test material administration group and a VEGF (50 ng/ml) administration group were established, and each group consisted of six 8-week-old C57BL/6 mice. 0.5 ml of Matrigel, 50 U/ml of heparin, and a test material were formulated for use at each concentration right before the administration, and formulated such that VEGF was also included in the test material administration group. Seven days after the administration, a Matrigel plug was extracted, a photograph was taken, the amount of hemoglobin was measured by using the Drabkin method (Drabkin reagent kit 525, Sigma-Aldrich, Louis, Mo.), and purification was performed.
0.6 ml of the test material solution was administered to the dorsal hypodermis of each test animal by using a 1-ml syringe.
Thus, additionally through an in vivo Matrigel plug assay, the effects of P2 on in vivo angiogenesis were checked.

C57BL/6 mice [6] = assay: Laser-induced choroidal neovascularization (CNV) mouse model, angiography; type: in vivo; settings: intravitreal injection once, 14 days after laser, vs control, FIG. 8
Protocol: (§4) More specifically, male 6-week-old C57BL/6 mice were purchased from Orient Bio Inc., and acclimated for 1 week, and then anesthetized, and the pupils were dilated. Subsequently, an animal model was prepared by irradiating the space around the ophthalmic nerves in 12, 3, 6, and 9 o'clock directions with diode green laser (532 nm, 200 mW, 0.8 sec, 50 μm, and photocoagulator) to cause injury to 3 to 4 sites per eyeball.
(§5) After injury was caused to mice with laser by the method in Example 1-9-1 and the mice were anesthetized one day later, 2 μL was administered into the vitreous body of both eyes once (intravitreal injection) using a 34 gauge needle. Subsequently, 14 days after the irradiation with laser, angiography and staining and imaging of CNV were performed.
14 days after the irradiation with laser, the mice experienced mydriasis and were systemically anesthetized by injecting 80 mg/kg of alfaxalone into the abdominal cavities of the mice, and then 1% fluorescein was intraperitoneally injected into the mice. And then, after the mice were photographed by using a Micron IV device, the CNV lesion area was measured by using Image-Pro Plus software.
Accordingly, in the animal models prepared by the methods in Examples 1-9, the degree to which the contrast medium was leaked according to the administration of NMSSV was compared with that of the control.

C57BL/6 mice [7] = assay: Laser-induced CNV mouse model, isolectin B4 immunofluorescence staining; type: in vivo; settings: intravitreal injection once, 2 weeks after laser, vs control, FIG. 9
Protocol: as §4, §5
14 days after the irradiation with laser, eyeballs were extracted from the mice, and then fixed in 4% paraformaldehyde for 1 hour. […] Thereafter, after the complex tissue was washed with PBS, the tissue with a fluorescence mounting medium (Vector, USA) was fixed on a slide glass, and then covered with a cover slip, and the tissue was observed and photographed through a fluorescence microscope. The CNV lesion area was measured by using Image-Pro Plus software. […]

Structure (SMILES): CC(C)CC1OC(=O)[C@H](Cc2ccccc2)NC(=O)[C@H](CC(C)C)NC(=O)[C@H](C(C)C)NC(=O)[C@H](CC(C)C)N(C)C1=O (single isomer, unassigned) [P2, neo-N-methylsansalvamide]
- proliferation of HUVECs induced by VEGF ([1]; VEGF 50 ng/ml, MTT, FIG. 1): dose-dependently inhibited
- apoptosis (cytotoxicity) in HUVECs ([1]; at 5 μg/ml of P2, MTT): significant apoptosis was not detected
- phosphorylation of ERK1/2 induced by VEGF (ERK1/2): inhibited the phosphorylation
- phosphorylation of AKT induced by VEGF (AKT): inhibited the phosphorylation
- phosphorylation of eNOS induced by VEGF (eNOS): inhibited the phosphorylation
- VEGF-induced colony tube formation in HUVECs (HUVECs [2]): significantly inhibited
- VEGF-induced migration of HUVECs (HUVECs [3]): significantly decreased
- invasion of HUVECs due to VEGF through Matrigel (HUVECs [4]): blocked
- formation of VEGF-induced blood vessels in a mouse aortic ring (mouse aortic ring): significantly inhibited
- content of hemoglobin of Matrigel plug treated with VEGF (C57BL/6 mice [5]; Drabkin method): continuously inhibited the content of hemoglobin
- formation of new blood vessels in Matrigel plug (C57BL/6 mice [5]; compared to VEGF alone, subcutaneous plug): the formation of new blood vessels was decreased
- CNV lesion area (angiography) (C57BL/6 mice [6]): the CNV lesion area is decreased
- fluorescein leakage (C57BL/6 mice [6]): the fluorescein leakage was decreased
- CNV lesion area (isolectin B4 stained area) (C57BL/6 mice [7]): significantly decreased
